PubChem BioAssay (NCI)
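Test compounds were applied to cells in 96-well plates for 48 hours at 5 doses. Abbreviation: GI50, concentration required for 50% inhibition of growth. At the TGI there is no net growth.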

How the values were obtained:
Assay in all cases: inhibition of tumour cell growth, NCI panel, 48 h
[1] = tested on: DU-145 prostate
[2] = tested on: M14 melanoma
[3] = tested on: MALME-3M melanoma
[4] = tested on: MCF7 breast
[5] = tested on: NCI-H23 lung
[6] = tested on: RXF 393 renal
[7] = tested on: SR leukemia
[8] = tested on: SW-620 colon
[9] = tested on: UACC-257 melanoma

CCCCCCCCC/C=C1/CC(CO)(COC(=O)C2CCCCC2)OC1=O (stereo not drawn)
TGI [1]: > 100 µM | TGI [2]: > 100 µM | TGI [3]: > 100 µM | TGI [4]: > 100 µM | TGI [5]: > 100 µM | TGI [6]: > 100 µM | TGI [7]: > 100 µM | TGI [8]: > 100 µM | TGI [9]: > 100 µM

CCN1CCC(O)(/C=C/c2ccc(Cl)c(Cl)c2)C(C(=O)/C=C/c2ccc(Cl)c(Cl)c2)C1 (stereo not drawn)
TGI [1]: 3.24 µM | TGI [2]: 1.76 µM | TGI [3]: 2.5 µM | TGI [4]: 2.67 µM | TGI [5]: 2.06 µM | TGI [6]: 2.71 µM | TGI [8]: 1.4 µM | TGI [9]: 2.71 µM

COc1ccccc1-c1nc[nH]c1-c1ccccc1OC
TGI [2]: 78.3 µM | TGI [3]: 52.9 µM | TGI [4]: > 100 µM | TGI [5]: > 100 µM | TGI [6]: 87.1 µM | TGI [8]: > 100 µM | TGI [9]: > 100 µM

CN(C)CC(O)CNC(=O)Nc1ccccc1 (stereo not drawn)
TGI [1]: > 100 µM | TGI [2]: > 100 µM | TGI [3]: > 100 µM | TGI [4]: > 100 µM | TGI [5]: > 100 µM | TGI [6]: > 100 µM | TGI [8]: > 100 µM | TGI [9]: > 100 µM

CN(CCCNC(=O)c1[nH]nc2c1ccc1ccccc12)CCCNC(=O)c1[nH]nc2c1ccc1ccccc12
TGI [1]: 31.8 µM | TGI [2]: 20.1 µM | TGI [3]: 22.4 µM | TGI [4]: 28.7 µM | TGI [5]: 33 µM | TGI [6]: 30.5 µM | TGI [8]: 35.2 µM | TGI [9]: 16.9 µM

O=S1(=O)OCCOS(=O)(=O)C1C1c2ccccc2-c2ccccc21
TGI [1]: > 100 µM | TGI [2]: > 100 µM | TGI [3]: > 100 µM | TGI [4]: > 100 µM | TGI [5]: > 100 µM | TGI [6]: > 100 µM | TGI [8]: > 100 µM | TGI [9]: > 100 µM

c1ccc(C(OCCN2CC3CCC(C2)N3)c2ccccc2)cc1
TGI [1]: > 100 µM | TGI [2]: 32.3 µM | TGI [3]: 30.5 µM | TGI [4]: > 100 µM | TGI [5]: > 100 µM | TGI [6]: > 100 µM | TGI [7]: > 100 µM | TGI [8]: > 100 µM | TGI [9]: 49 µM

CC(NC(=O)C(NC(=O)C(NC(=O)C(F)(F)F)C(C)C)C(C)C)C(=O)Oc1c(Cl)c(Cl)c(Cl)c(Cl)c1Cl (stereo not drawn)
TGI [1]: > 100 µM | TGI [2]: > 100 µM | TGI [3]: > 100 µM | TGI [4]: > 100 µM | TGI [5]: > 100 µM | TGI [6]: > 100 µM | TGI [7]: > 100 µM | TGI [8]: > 100 µM | TGI [9]: > 100 µM

COC(=O)C1=C(C(=O)OC)SC2(S1)C(C(=O)OC)=C(C(=O)OC)Sc1c2ssc1=O
TGI [1]: 2.33 µM | TGI [2]: 3.88 µM | TGI [3]: 1.55 µM | TGI [4]: 4.65 µM | TGI [5]: 4.12 µM | TGI [6]: 2.7 µM | TGI [8]: 2.47 µM | TGI [9]: 3.59 µM

COc1cc2ccnc3c2c(c1OC)N(C)C=C3
TGI [1]: > 100 µM | TGI [2]: 68.8 µM | TGI [4]: 44.6 µM | TGI [5]: 47 µM | TGI [6]: 68.6 µM | TGI [7]: 64.9 µM | TGI [8]: > 100 µM | TGI [9]: > 100 µM

Nc1nc(Cl)cc(OCC2(CO)CCCCC2)n1
TGI [1]: > 100 µM | TGI [3]: > 100 µM | TGI [4]: > 100 µM | TGI [5]: > 100 µM | TGI [6]: > 100 µM | TGI [7]: > 100 µM | TGI [8]: > 100 µM | TGI [9]: > 100 µM

O=C(/C=C/c1cc2ccccc2[nH]c1=O)c1ccc(O)cc1
GI50 [1]: 4.02 µM | TGI [1]: 14.3 µM | GI50 [2]: 2.6 µM | TGI [2]: 6.57 µM | GI50 [3]: 10.4 µM | TGI [3]: 33.6 µM | GI50 [4]: 3.49 µM | TGI [4]: 16.8 µM | GI50 [5]: 3.18 µM | TGI [5]: 20 µM | GI50 [6]: 1.65 µM | TGI [6]: 3.23 µM | GI50 [8]: 1.89 µM | TGI [8]: 4.45 µM | GI50 [9]: 3.87 µM | TGI [9]: 16 µM

COC(=O)C12CCC(CC1=O)C2(C)C (stereo not drawn)
TGI [2]: > 100 µM | TGI [3]: > 100 µM | TGI [5]: > 100 µM | TGI [6]: > 100 µM | TGI [7]: > 100 µM | TGI [8]: > 100 µM | TGI [9]: > 100 µM

CCOP(=O)(OCC)C(Cc1cn(S(=O)(=O)c2ccc(C)cc2)cn1)C(=O)O (stereo not drawn)
TGI [1]: > 100 µM | TGI [2]: > 100 µM | TGI [3]: > 100 µM | TGI [4]: > 100 µM | TGI [5]: > 100 µM | TGI [6]: > 100 µM | TGI [7]: > 100 µM | TGI [8]: > 100 µM

COC(=O)[C@@]1(Cc2ccc(OC(C)=O)cc2)Cc2cc3ccccc3n2N1
TGI [1]: > 100 µM | TGI [2]: > 100 µM | TGI [3]: > 100 µM | TGI [4]: > 100 µM | TGI [5]: > 100 µM | TGI [7]: 70.6 µM | TGI [8]: > 100 µM | TGI [9]: 52.1 µM

O=C1/C(=C/Cc2ccco2)N=C(c2ccccc2)N1c1nc2ccc(Sc3ccccc3)cc2[nH]1
TGI [1]: 70.5 µM | TGI [2]: 42.5 µM | TGI [4]: 49.2 µM | TGI [6]: 36.1 µM | TGI [7]: 54.6 µM | TGI [8]: > 100 µM | TGI [9]: 57.5 µM

CSCCC(NOC(=O)Cc1ccccc1)P(=O)(O)c1ccccc1 (stereo not drawn)
TGI [1]: > 100 µM | TGI [2]: > 100 µM | TGI [4]: > 100 µM | TGI [5]: > 100 µM | TGI [7]: > 100 µM | TGI [8]: > 100 µM | TGI [9]: > 100 µM
